How the values were obtained:
HSV = assay: plaque reduction assay, inhibition of HSV replication; format: cell-based; details: for Virus titer: pretreated Veto cell monolayers, plaques counted after 2 to 3 days
Protocol: Selected compounds were first formulated as 10 mM stocks in water for in vitro and call culture procedures. Then stocks are then diluted into buffers used for specific assays, or into cell culture media. For animal studies peptides are diluted into phosphate buffer saline,
The following procedures were then used to determine inhibitory effects of compounds on the replication of HSV. First, confluent monolayers of Veto cells (continuous passage cell line derived from African Green Monkeys) in 24 well cell culture plates were treated with specified concentrations of peptide for 25 hours. This was accomplished by diluting the stock peptide solution in growth medium used to overlay the monolayers, i.e. growth medium containing 10% fetal bovine serum and 10 ug/ml gentamicin in Dulbecco's MEM (DMEM).
Virus was then allowed to adsorb for 1 hour at 37° C. The virus inoculum was removed and the monolayers are overlayed with DMEM containing 2% FBS, 10 ug/ml gentamicin and specified concentration of peptide. Virus was next allowed to replicate for 2 to 3 days until the plaques were judged to be well developed, and then the monolayers were fixed and stained with a solution of 1% crystal violet in 1% formaldehyde, 70% ethanol. Finally, plaques (each representing a single viable virion) were counted and checked microscopically.

- inhibition of host cell replication (Veto cells): no apparent inhibition
Compound: CC(=O)N[C@H](CCCNC(=N)N)C(=O)N[C@H](CCCNC(=N)N)C(=O)N[C@H](CCCNC(=N)N)C(=O)N[C@H](CCCNC(=N)N)C(=O)N[C@H](CCCNC(=N)N)C(=O)N[C@H](CCCNC(=N)N)C(=O)N[C@H](CCCNC(=N)N)C(=O)N[C@H](CCCNC(=N)N)C(=O)N[C@H](CCCNC(=N)N)C(N)=O [compound 4C, acetyl-[D-Arg]9 -NH2]
- inhibition of viral replication (HSV; at the concentration tested (5uM)): ≥ 95%
- Virus titer (HSV; peptide concentration 0.5 uM): 30,000 pfu/ml
- Virus titer (HSV; peptide concentration 5.0 uM): 11,000 pfu/ml
